# Experimental data from PubChem BioAssay AID194 (DTP/NCI, 2004).
# Several values for one entry are separate records, joined by “and”; a condition that tells them apart may be missing. Equal values may be shown once. Records with an inconclusive call do not appear.
# Tested on: BDF1 mice, B16 melanoma s.c., survival/tumor T/C
# Assay: NCI In Vivo Anticancer Drug Screen. Data for tumor model B16 Melanoma (subcutaneous) in B6D2F1 (BDF1) mice
# Settings: endpoint: median survival time, higher = longer survival
# Experimental: The antitumor activity of compounds was measured in mice bearing transplantable tumors. Survival or tumor size were measured and the results are expressed as the measurement made in the treated group (T) divided by the measurement made in the vehicle treated control group (C). The tumor model used in this assay is B16 Melanoma (subcutaneous) in B6D2F1 (BDF1) mice
# [1] = dose: 40.0 mg/kg/injection, schedule: Q01DX009 (ip), vehicle: Klucel (hydroxypropylcellulose) (HPC)
smiles,measurement,setting,value
COC1=C2C[C@@H](C)C[C@@H](OC)[C@@H](O)[C@H](C)/C=C(\C)[C@@H](OC(N)=O)[C@H](OC)/C=C\C=C(/C)C(=O)NC(=CC1=O)C2=O,T/C,"dose: 0.5 mg/kg/injection, schedule: Q01DX005 (ip), vehicle: water",118 % of control
same,T/C,"dose: 1.0 mg/kg/injection, schedule: Q01DX005 (ip), vehicle: water",105 % of control
CC(NSc1ccccc1[N+](=O)[O-])C(=O)O (stereo unspecified),T/C,"dose: 12.5 mg/kg/injection, schedule: Q01DX009 (ip), vehicle: saline with Tween-80",109 % of control
same,T/C,"dose: 25.0 mg/kg/injection, schedule: Q01DX009 (ip), vehicle: saline with Tween-80",106 % of control
same,T/C,"dose: 50.0 mg/kg/injection, schedule: Q01DX009 (ip), vehicle: saline with Tween-80",89 % of control
same,T/C,"dose: 100.0 mg/kg/injection, schedule: Q01DX009 (ip), vehicle: saline with Tween-80",122 % of control
NC(CS/C(Cl)=C/Cl)C(=O)O (stereo unspecified),T/C,"dose: 1.25 mg/kg/injection, schedule: Q01DX009 (ip), vehicle: saline",102 % of control
same,T/C,"dose: 2.5 mg/kg/injection, schedule: Q01DX009 (ip), vehicle: saline",95 % of control
same,T/C,"dose: 5.0 mg/kg/injection, schedule: Q01DX009 (ip), vehicle: saline",97 % of control and 106 % of control
same,T/C,"dose: 18.0 mg/kg/injection, schedule: Q01DX009 (ip), vehicle: saline",101 % of control
NC(C/[N+]([O-])=N/O)C(=O)O (stereo unspecified),T/C,"dose: 8.75 mg/kg/injection, schedule: Q01DX010 (ip), vehicle: alkali diluted with saline",96 % of control
same,T/C,"dose: 8.78 mg/kg/injection, schedule: Q01DX010 (ip), vehicle: alkali diluted with saline",100 % of control
same,T/C,"dose: 13.2 mg/kg/injection, schedule: Q01DX010 (ip), vehicle: alkali diluted with saline",152 % of control and 154 % of control
same,T/C,"dose: 29.6 mg/kg/injection, schedule: Q01DX010 (ip), vehicle: alkali diluted with saline",93 % of control and 96 % of control
same,T/C,[1],103 % of control
same,T/C,"dose: 44.4 mg/kg/injection, schedule: Q01DX010 (ip), vehicle: alkali diluted with saline",104 % of control
same,T/C,"dose: 66.7 mg/kg/injection, schedule: Q01DX010 (ip), vehicle: alkali diluted with saline",122 % of control
same,T/C,"dose: 300.0 mg/kg/injection, schedule: Q01DX001 (ip), vehicle: Klucel (hydroxypropylcellulose) (HPC)",87 % of control
same,T/C,"dose: 300.0 mg/kg/injection, schedule: Q04DX003 (ip), vehicle: Klucel (hydroxypropylcellulose) (HPC)",93 % of control
same,T/C,"dose: 500.0 mg/kg/injection, schedule: Q01DX001 (ip), vehicle: Klucel (hydroxypropylcellulose) (HPC)",97 % of control
CCOC(=O)CNC(=O)CCCCSc1ncnc2nc[nH]c12,T/C,"dose: 20.0 mg/kg/injection, schedule: Q01DX009 (ip), vehicle: Klucel (hydroxypropylcellulose) (HPC)",121 % of control
same,T/C,[1],111 % of control
same,T/C,"dose: 80.0 mg/kg/injection, schedule: Q01DX009 (ip), vehicle: Klucel (hydroxypropylcellulose) (HPC)",119 % of control
same,T/C,"dose: 160.0 mg/kg/injection, schedule: Q01DX009 (ip), vehicle: Klucel (hydroxypropylcellulose) (HPC)",115 % of control
same,T/C,"dose: 320.0 mg/kg/injection, schedule: Q01DX009 (ip), vehicle: Klucel (hydroxypropylcellulose) (HPC)",118 % of control
same,T/C,"dose: 640.0 mg/kg/injection, schedule: Q01DX009 (ip), vehicle: Klucel (hydroxypropylcellulose) (HPC)",122 % of control
